# Measurements published in US8501755B2, “Tetrahydropyridothienopyrimidine compounds and methods of use thereof” (Bayer Intellectual Property GmbH, priority 2006, dated 2013).
# pIC50: −log10 of the molar value.
# How the values were obtained:
# Type in all cases: cell-based
# H1975 cells = experiment: In vitro tumor cell proliferation assay (Cell Titer-Glo) in H1975 cells; settings: NCI-H1975; H1975 human NSCLC expressing mutant HER1 (L858R,T790M); 72 hours exposure; read-out: IC50, activities in H 1975 cell lines
# Text: The tumor cell proliferation assay used to test the compounds of the present invention involves a readout called Cell Titer-Glow® Luminescent Cell Viability Assay developed by Promega® (Cunningham, BA “A Growing Issue: Cell Proliferation Assays, Modern kits ease quantification of cell growth” The Scientist 2001, 15(13), 26, and Crouch, S P et al., “The use of ATP bioluminescence as a measure of cell proliferation and cytotoxicity” Journal of Immunological Methods 1993, 160, 81-88), that measures inhibition of cell proliferation. Generation of a luminescent signal corresponds to the amount of ATP present, which is directly proportional to the number of metabolically active (proliferating) cells.
# H1975 cells [human non small cell lung carcinoma, ATCC # CRL-5908, expressing mutant HER1 [(EGFR, ErbB1)(L858R,T790M] were plated at a density of 3×10^3 cells/well in 96 well black-clear bottom tissue culture plates in RPMI media with 10% Fetal Bovine Serum and incubated at 37° C. Twenty-four hours later, test compounds are added at a final concentration range from as high 10 uM to as low 64 pM depending on the activities of the tested compounds in serial dilutions at a final DMSO concentration of 0.1%. Cells were incubated for 72 hours at 37° C. in complete growth media after addition of the test compound. After 72 hours of drug exposure, the plates were equilibrated to room temperature for approximately 30 min. Then, using a Promega Cell Titer Glo Luminescent® assay kit, lysis buffer containing 100 microliters of the enzyme luciferase and its substrate, luciferin mixture, was added to each well. The plates were mixed for 2 min on orbital shaker to ensure cell lysis and incubated for 10 min at room temperature to stabilize luminescence signal. The samples were read on VICTOR2 using Luminescence protocol, and analyzed with Analyze5 software to generate IC50 values.
# N87 = experiment: In vitro tumor cell proliferation assay (Cell Titer-Glo) in N87 cells; settings: N87 human gastric carcinoma overexpressing HER2 and HER1; 72 hours exposure; read-out: IC50, activities in N87 cell lines
# Text: (§1) The tumor cell proliferation assay used to test the compounds of the present invention involves a readout called Cell Titer-Glow® Luminescent Cell Viability Assay developed by Promega® (Cunningham, BA “A Growing Issue: Cell Proliferation Assays, Modern kits ease quantification of cell growth” The Scientist 2001, 15(13), 26, and Crouch, S P et al., “The use of ATP bioluminescence as a measure of cell proliferation and cytotoxicity” Journal of Immunological Methods 1993, 160, 81-88), that measures inhibition of cell proliferation. Generation of a luminescent signal corresponds to the amount of ATP present, which is directly proportional to the number of metabolically active (proliferating) cells. A431 cells [human epidermoid carcinoma, ATCC # HTB-20, overexpressing HER1 (EGFR, ErbB1)] and N87 [human gastric carcinoma, ATCC # CRL-1555, overexpressing HER2 (ErbB2) and HER1 (EGFR, ErbB1)] were plated at a density of 2.5×10^3 cells/well in 96 well black-clear bottom tissue culture plates in RPMI media with 10% Fetal Bovine Serum and incubated at 37° C. Twenty-four hours later, test compounds are added at a final concentration range from as high 100 μm to as low […] depend on the activities of the tested compounds in serial dilutions at a final DMSO concentration of 0.1%. Cells were incubated for 72 hours at 37° C. in complete growth media after addition of the test compound. After 72 hours of drug exposure, the plates were equilibrated to room temperature for approximately 30 min. Then, using a Promega Cell Titer Glo Luminescent® assay kit, lysis buffer containing 100 microliters of the enzyme luciferase and its substrate, luciferin mixture, was added to each well. The plates were mixed for 2 min on orbital shaker to ensure cell lysis and incubated for 10 min at room temperature to stabilize luminescence signal. The samples were read on VICTOR2 using Luminescence protocol, and analyzed with Analyze5 software to generate IC50 values.
# A431 cells = experiment: In vitro tumor cell proliferation assay (Cell Titer-Glo) in A431 cells; settings: Homo sapiens, A-431, 72 h, A431 human epidermoid carcinoma overexpressing HER1; 72 hours exposure; read-out: IC50, activities in A431 cell lines
# Text: as §1
pIC50 (H1975 cells),pIC50 (N87),pIC50 (A431 cells),SMILES
5.00 to 6.00,5.30 to 6.70,5.00 to 6.00,"C#Cc1cccc(Nc2ncnc3sc4c(c23)CCN(C(=O)C2=CCCN(C)C2)C4)c1 [Example 31, N-(3-ethynylphenyl)-7-[(1-methyl-1,2,5,6-tetrahydropyridin-3-yl)carbonyl]-5,6,7,8-tetrahydropyrido [4′,3′:4,5]thieno[2,3-d]pyrimidin-4-amine]"
5.00 to 6.00,> 6.70,5.00 to 6.00,"O=C(/C=C/CN(CCO)CCO)N1CCc2c(sc3ncnc(Nc4ccc(F)c(Cl)c4)c23)C1 [Example 32, 2,2′-{[(2E)-4-{4-[(3-chloro-4-fluorophenyl)amino]-5,8-dihydropyrido [4′,3′:4,5]thieno[2,3-d]pyrimidin-7(6H)-yl}-4-oxobut-2-en-1-yl]imino}diethanol]"
5.00 to 6.00,5.30 to 6.70,5.00 to 6.00,"O=C(/C=C/CN1CCSC1)N1CCc2c(sc3ncnc(Nc4ccc(F)c(Cl)c4)c23)C1 [Example 35, N-(3-chloro-4-fluorophenyl)-7-[(2E)-4-(1,3-thiazolidin-3-yl)but-2-enoyl]-5,6,7,8-tetrahydropyrido [4′3′:4,5]thieno[2,3-d]pyrimidin-4-amine]"
5.00 to 6.00,> 6.70,5.00 to 6.00,"CCN(C/C=C/C(=O)N1CCc2c(sc3ncnc(Nc4ccc(F)c(Cl)c4)c23)C1)C(C)C [Example 37, N-(3-chloro-4-fluorophenyl)-7-{(2E)-4-[ethyl(isopropyl)amino]but-2-enoyl}-5,6,7,8-tetrahydropyrido [4′3′:4,5]thieno[2,3-d]pyrimidin-4-amine]"
5.00 to 6.00,5.30 to 6.70,5.00 to 6.00,"O=C(/C=C/CN1CCc2ccccc21)N1CCc2c(sc3ncnc(Nc4ccc(F)c(Cl)c4)c23)C1 [Example 38, N-(3-chloro-4-fluorophenyl)-7-[(2E)-4-(2,3-dihydro-1H-indol-1-yl)but-2-enoyl]-5,6,7,8-tetrahydropyrido [4′3′:4,5]thieno[2,3-d]pyrimidin-4-amine]"
5.00 to 6.00,> 6.70,5.00 to 6.00,"CC(O)CN(C/C=C/C(=O)N1CCc2c(sc3ncnc(Nc4ccc(F)c(Cl)c4)c23)C1)CC(C)O (stereo not drawn) [Example 39, 1,1′-{[(2E)-4-{4-[(3-chloro-4-fluorophenyl)amino]-5,8-dihydropyrido [4′,3′:4,5]thieno[2,3-d]pyrimidin-7(6H)-yl}-4-oxobut-2-en-1-yl]imino}dipropan-2-ol]"
6.00 to 6.70,> 6.70,6.00 to 6.70,"CCN(C)C/C=C/C(=O)N1CCc2c(sc3ncnc(Nc4ccc(F)c(Cl)c4)c23)C1 [Example 40, N-(3-chloro-4-fluorophenyl)-7-{(2E)-4-[ethyl(methyl)amino]but-2-enoyl}-5,6,7,8-tetrahydropyrido [4′,3′:4,5]thieno[2,3-d]pyrimidin-4-amine]"
5.00 to 6.00,> 6.70,6.00 to 6.70,CC1CN(C/C=C/C(=O)N2CCc3c(sc4ncnc(Nc5ccc(F)c(Cl)c5)c34)C2)CC(C)O1 (stereo not drawn) [Example 41]
5.00 to 6.00,> 6.70,5.00 to 6.00,"O=C(/C=C/CN1CCSCC1)N1CCc2c(sc3ncnc(Nc4ccc(F)c(Cl)c4)c23)C1 [Example 42, N-(3-chloro-4-fluorophenyl)-7-[(2E)-4-thiomorpholin-4-ylbut-2-enoyl]-5,6,7,8-tetrahydropyrido [4′,3′:4,5]thieno[2,3-d]pyrimidin-4-amine]"
5.00 to 6.00,> 6.70,5.00 to 6.00,"O=C(/C=C/CN(CCO)CCO)N1CCc2c(sc3ncnc(Nc4ccc(OCc5ccccn5)c(Cl)c4)c23)C1 [Example 43, 2,2′-({(2E)-4-[4-{[3-chloro-4-(pyridin-2-ylmethoxy)phenyl]amino}-5,8-dihydropyrido [4′,3′:4,5]thieno[2,3-d]pyrimidin-7(6H)-yl]-4-oxobut-2-en-1-yl}imino)diethanol]"
5.00 to 6.00,> 6.70,5.00 to 6.00,"O=C(/C=C/CN1CCc2ccccc21)N1CCc2c(sc3ncnc(Nc4ccc(OCc5ccccn5)c(Cl)c4)c23)C1 [Example 44, N-[3-chloro-4-(pyridin-2-ylmethoxy)phenyl]-7-[(2E)-4-(2,3-dihydro-1H-indol-1-yl)but-2-enoyl]-5,6,7,8-tetrahydropyndo [4′,3′:4,5]thieno[2,3-d]pyrimidin-4-amine]"
6.00 to 6.70,> 6.70,5.00 to 6.00,"O=C(/C=C/CN1CCC(N2CCCCC2)CC1)N1CCc2c(sc3ncnc(Nc4ccc(F)c(Cl)c4)c23)C1 [Example 45, 7-[(2E)-4-(1,4′-bipiperidin-1-yl)but-2-enoyl]-N-(3-chloro-4-fluorophenyl)-5,6,7,8-tetrahydropyrido [4′,3′:4,5]thieno[2,3-d]pyrimidin-4-amine]"
6.00 to 6.70,> 6.70,6.00 to 6.70,"CC1CC(C)CN(C/C=C/C(=O)N2CCc3c(sc4ncnc(Nc5ccc(OCc6ccccn6)c(Cl)c5)c34)C2)C1 (stereo not drawn) [Example 46, N-[3-chloro-4-(pyridin-2-ylmethoxy)phenyl]-7-[(2E)-4-(3,5-dimethylpiperidin-1-yl)but-2-enoyl]-5,6,7,8-tetrahydropyrido [4′,3′:4,5]thieno[2,3-d]pyrimidin-4-amine]"
6.00 to 6.70,> 6.70,6.00 to 6.70,"O=C(/C=C/CN1CCCC(CO)C1)N1CCc2c(sc3ncnc(Nc4ccc(OCc5ccccn5)c(Cl)c4)c23)C1 (stereo not drawn) [Example 47, (1-{(2E)-4-[4-{[3-chloro-4-(pyridin-2-ylmethoxy)phenyl]amino}-5,8-dihydropyrido [4′,3′:4,5]thieno[2,3-d]pyrimidin-7(6H)-yl]-4-oxobut-2-en-1-yl}piperidin-3-yl)methanol]"
5.00 to 6.00,> 6.70,5.00 to 6.00,"CC1CCC(C)N1C/C=C/C(=O)N1CCc2c(sc3ncnc(Nc4ccc(OCc5ccccn5)c(Cl)c4)c23)C1 (stereo not drawn) [Example 48, N-[3-chloro-4-(pyridin-2-ylmethoxy)phenyl]-7-[(2E)-4-(2,5-dimethylpyrrolidin-1-yl)but-2-enoyl]-5,6,7,8-tetrahydropyrido [4′,3′:4,5]thieno[2,3-d]pyrimidin-4-amine]"
6.00 to 6.70,> 6.70,6.00 to 6.70,"CCN(C)C/C=C/C(=O)N1CCc2c(sc3ncnc(Nc4ccc(OCc5ccccn5)c(Cl)c4)c23)C1 [Example 49, N-(3-chloro-4-(pyridin-2-ylmethoxy)phenyl]-7-{(2E)-4-[ethyl(methyl)amino]but-2-enoyl}-5,6,7,8-tetrahydropyrido [4′,3′:4,5]thieno[2,3-d]pyrimidin-4-amine]"
5.00 to 6.00,> 6.70,6.00 to 6.70,"O=C(/C=C/Cn1ccnc1)N1CCc2c(sc3ncnc(Nc4ccc(OCc5ccccn5)c(Cl)c4)c23)C1 [Example 51, N-[3-chloro-4-(pyridin-2-ylmethoxy)phenyl]-7-[(2E)-4-(1H-imidazol-1-yl)but-2-enoyl]-5,6,7,8-tetrahydropyrido [4′,3′:4,5]thieno[2,3-d]pyrimidin-4-amine]"
5.00 to 6.00,5.30 to 6.70,5.00 to 6.00,"CC(O)CN(C/C=C/C(=O)N1CCc2c(sc3ncnc(Nc4ccc(OCc5ccccn5)c(Cl)c4)c23)C1)CC(C)O (stereo not drawn) [Example 52, 1,1′-({(2E)-4-[4-{[3-chloro-4-(pyridin-2-ylmethoxy)phenyl]amino}-5,8-dihydropyrido [4′,3′:4,5]thieno[2,3-d]pyrimidin-7(6H)-yl]-4-oxobut-2-en-1-yl}imino)dipropan-2-ol]"
